The results in this text go back to ChEMBL document CHEMBL4334516, “Kinase Chemodiversity from the Arctic: The Breitfussins” (J Med Chem, 2019).

The target of data set [1] is Mitogen-activated protein kinase kinase kinase 11 (Homo sapiens, UniProt Q16584). In words: Inhibition of MLK3 (unknown origin) by [33P]-ATP filter binding kinase assay.
The target of data set [2] is T1, Serine/threonine-protein kinase pim-3 (Homo sapiens, UniProt Q86V86). In words: Inhibition of PIM3 (unknown origin) by [33P]-ATP filter binding kinase assay.
Data set [3] deals with T2, Serine/threonine-protein kinase 17B (Homo sapiens, UniProt O94768).
T2 sequence (O94768 whole entry): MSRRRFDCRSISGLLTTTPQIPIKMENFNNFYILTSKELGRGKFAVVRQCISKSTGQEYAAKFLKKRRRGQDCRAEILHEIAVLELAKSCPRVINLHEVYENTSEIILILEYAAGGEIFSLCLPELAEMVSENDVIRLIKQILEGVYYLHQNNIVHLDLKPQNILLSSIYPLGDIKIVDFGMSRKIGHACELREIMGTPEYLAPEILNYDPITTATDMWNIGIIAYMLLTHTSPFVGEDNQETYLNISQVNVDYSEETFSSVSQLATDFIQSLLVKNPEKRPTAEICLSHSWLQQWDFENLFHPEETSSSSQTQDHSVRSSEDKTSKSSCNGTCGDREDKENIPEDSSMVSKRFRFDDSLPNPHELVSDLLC
As to the kind of experiment: Inhibition of DRAK2 (unknown origin) expressed in HEK293 cells by NanoLuc-luciferase reporter based intracellular ATP competitiveness assay. Format: cell-based.

For data set [4], the target named is Serine/threonine-protein kinase pim-2 (Homo sapiens, UniProt Q9P1W9). As to the kind of experiment: Inhibition of PIM2 (unknown origin) by [33P]-ATP filter binding kinase assay.
Data set [5] addresses T3, Dual specificity tyrosine-phosphorylation-regulated kinase 1A (Homo sapiens, UniProt Q13627). As to the kind of experiment: Inhibition of DYRK1A (unknown origin) by [33P]-ATP filter binding kinase assay.
The target in data set [6] is T4, Aurora kinase A (Homo sapiens, UniProt O14965).
T4 sequence (O14965 whole entry): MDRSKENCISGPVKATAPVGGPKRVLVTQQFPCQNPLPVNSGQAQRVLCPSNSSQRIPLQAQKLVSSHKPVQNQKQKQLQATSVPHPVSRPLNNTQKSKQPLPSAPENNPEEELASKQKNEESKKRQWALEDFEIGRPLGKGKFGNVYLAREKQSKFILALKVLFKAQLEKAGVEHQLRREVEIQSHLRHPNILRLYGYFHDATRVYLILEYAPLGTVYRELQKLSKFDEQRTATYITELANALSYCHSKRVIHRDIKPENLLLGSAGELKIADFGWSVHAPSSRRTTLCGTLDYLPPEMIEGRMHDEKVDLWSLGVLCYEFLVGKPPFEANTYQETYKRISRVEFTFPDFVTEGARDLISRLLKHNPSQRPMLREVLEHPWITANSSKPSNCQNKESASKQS
In words: Inhibition of Aurora A (unknown origin) by [33P]-ATP filter binding kinase assay.

Data set [7] concerns MCF7. As to the kind of experiment: Cytotoxicity in human MCF7 cells assessed as reduction in cell viability incubated for 72 hrs by MTS assay. Format: functional, cell-based. The settings on record: MCF7, 72 h. (In general: Tetrazolium dyes change colour on reduction, which living cells bring about.)
In data set [8] the target is Serine/threonine-protein kinase SIK3 (Homo sapiens, UniProt Q9Y2K2). As to the kind of experiment: Inhibition of SIK3 (unknown origin) by [33P]-ATP filter binding kinase assay.
Data set [9] deals with HT-29. In words: Cytotoxicity in human HT-29 cells assessed as reduction in cell viability incubated for 72 hrs by MTS assay. Type of data set: functional, cell-based. The settings on record: HT-29, 72 h.
Data set [10] concerns the target T2, Serine/threonine-protein kinase 17B. As to the kind of experiment: Inhibition of Alexa Fluor 647-labeled ATP competitive kinase tracer binding to GST-tagged DRAK2 (unknown origin) by FRET based cell free ATP-competitive tracer displacement assay.
The test system of data set [11] is MDA-MB-468. As to the kind of experiment: Cytotoxicity in human MDA-MB-468 cells assessed as reduction in cell viability incubated for 72 hrs by MTS assay. Type of data set: functional, cell-based. As to conditions: MDA-MB-468, 72 h.
Data set [12] relates to MV4-11. In words: Cytotoxicity in human MV4-11 cells assessed as reduction in cell viability incubated for 72 hrs by MTS assay. Format: functional, cell-based. As to conditions: MV4-11, 72 h.
The target of data set [13] is T5, Serine/threonine-protein kinase 17A (Homo sapiens, UniProt Q9UEE5).
T5 sequence (Q9UEE5 whole entry): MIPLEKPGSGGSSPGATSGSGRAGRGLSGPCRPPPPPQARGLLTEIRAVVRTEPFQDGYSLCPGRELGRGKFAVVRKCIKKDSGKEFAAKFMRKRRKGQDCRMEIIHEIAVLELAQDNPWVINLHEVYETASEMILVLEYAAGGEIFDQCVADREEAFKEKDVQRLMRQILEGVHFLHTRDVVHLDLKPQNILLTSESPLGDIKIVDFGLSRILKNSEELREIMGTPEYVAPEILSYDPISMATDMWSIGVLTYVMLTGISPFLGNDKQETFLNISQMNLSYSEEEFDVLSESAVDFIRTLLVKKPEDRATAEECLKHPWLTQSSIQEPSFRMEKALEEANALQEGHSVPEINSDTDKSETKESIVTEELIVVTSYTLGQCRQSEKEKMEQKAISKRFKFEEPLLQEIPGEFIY
In words: Inhibition of Alexa Fluor 647-labeled ATP competitive kinase tracer binding to GST-tagged DRAK1 (unknown origin) by FRET based cell free ATP-competitive tracer displacement assay.

Data set [14] has as its system MOLT-4. As to the kind of experiment: Cytotoxicity in human MOLT4 cells assessed as reduction in cell viability incubated for 72 hrs by MTS assay. Type of data set: functional, cell-based. As to conditions: MOLT-4, 72 h.
Data set [15] concerns the target Receptor-interacting serine/threonine-protein kinase 2 (Homo sapiens, UniProt O43353). In words: Binding affinity to wild-type human partial length RIPK2 (M1 to K310 residues) expressed in bacterial expression system assessed as residual binding level at 10 uM by active-site directed competition binding assay based Kinomescan method relative to control.
The subject of data set [16] is MCF7. As to the kind of experiment: Cytotoxicity in human MCF7 cells assessed as reduction in cell viability incubated for 72 hrs by SRB assay. As to conditions: MCF7, 72 h. (The SRB assay estimates cell density from bound dye.)
For data set [17], the system named is MDA-MB-468. As to the kind of experiment: Cytotoxicity in human MDA-MB-468 cells assessed as reduction in cell viability incubated for 72 hrs by SRB assay. As to conditions: MDA-MB-468, 72 h.
Data set [18] concerns the target Serine/threonine-protein kinase pim-1 (Homo sapiens, UniProt P11309). In words: Inhibition of PIM1 (unknown origin) assessed as residual enzyme activity at 1 uM by [33P]-ATP filter binding kinase assay relative to control.
The target in data set [19] is T3, Dual specificity tyrosine-phosphorylation-regulated kinase 1A. As to the kind of experiment: Binding affinity to wild-type human partial length DYRK1A (H129 to S509 residues) expressed in mammalian expression system assessed as residual binding level at 10 uM by active-site directed competition binding assay based Kinomescan method relative to control.
Data set [20] in a line: Toxicity in zebrafish embryos at 0.1 to 1396 uM after 72 hrs. Also noted: species or system Danio rerio. The settings on record: in vivo, read-out: LD50.
For data set [21], the target named is Tyrosine-protein kinase JAK1 (Homo sapiens, UniProt P23458). As to the kind of experiment: Binding affinity to wild-type human partial length JAK1 JH2 domain-pseudokinase expressed in bacterial expression system by active-site directed competition binding assay based Kinomescan method.
Data set [22] has as its target T1, Serine/threonine-protein kinase pim-3. In words: Inhibition of PIM3 (unknown origin) assessed as residual enzyme activity at 1 uM by [33P]-ATP filter binding kinase assay relative to control.
Data set [23] in a line: Unbound fraction in mouse plasma at 5 uM incubated for 6 hrs at 37 degC by LC-MS analysis based equilibrium dialysis. Format: ADME, cell-free.
The subject of data set [24] is MCF7. As to the kind of experiment: Cytotoxicity in human MCF7 cells assessed as reduction in cell viability by MTS assay. The settings on record: TDE = time-dependent effect. Type of data set: functional, cell-based.

Sequence of Serine/threonine-protein kinase pim-2 (Q9P1W9 whole entry): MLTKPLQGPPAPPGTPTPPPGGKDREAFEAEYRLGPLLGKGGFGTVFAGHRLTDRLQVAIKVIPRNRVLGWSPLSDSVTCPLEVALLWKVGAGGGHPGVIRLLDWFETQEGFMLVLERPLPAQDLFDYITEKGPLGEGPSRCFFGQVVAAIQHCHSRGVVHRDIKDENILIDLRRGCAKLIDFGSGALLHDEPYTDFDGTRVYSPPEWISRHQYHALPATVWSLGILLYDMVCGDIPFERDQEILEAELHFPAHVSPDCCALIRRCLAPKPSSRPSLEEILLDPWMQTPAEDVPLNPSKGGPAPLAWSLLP
Sequence of Mitogen-activated protein kinase kinase kinase 11 (Q16584 whole entry): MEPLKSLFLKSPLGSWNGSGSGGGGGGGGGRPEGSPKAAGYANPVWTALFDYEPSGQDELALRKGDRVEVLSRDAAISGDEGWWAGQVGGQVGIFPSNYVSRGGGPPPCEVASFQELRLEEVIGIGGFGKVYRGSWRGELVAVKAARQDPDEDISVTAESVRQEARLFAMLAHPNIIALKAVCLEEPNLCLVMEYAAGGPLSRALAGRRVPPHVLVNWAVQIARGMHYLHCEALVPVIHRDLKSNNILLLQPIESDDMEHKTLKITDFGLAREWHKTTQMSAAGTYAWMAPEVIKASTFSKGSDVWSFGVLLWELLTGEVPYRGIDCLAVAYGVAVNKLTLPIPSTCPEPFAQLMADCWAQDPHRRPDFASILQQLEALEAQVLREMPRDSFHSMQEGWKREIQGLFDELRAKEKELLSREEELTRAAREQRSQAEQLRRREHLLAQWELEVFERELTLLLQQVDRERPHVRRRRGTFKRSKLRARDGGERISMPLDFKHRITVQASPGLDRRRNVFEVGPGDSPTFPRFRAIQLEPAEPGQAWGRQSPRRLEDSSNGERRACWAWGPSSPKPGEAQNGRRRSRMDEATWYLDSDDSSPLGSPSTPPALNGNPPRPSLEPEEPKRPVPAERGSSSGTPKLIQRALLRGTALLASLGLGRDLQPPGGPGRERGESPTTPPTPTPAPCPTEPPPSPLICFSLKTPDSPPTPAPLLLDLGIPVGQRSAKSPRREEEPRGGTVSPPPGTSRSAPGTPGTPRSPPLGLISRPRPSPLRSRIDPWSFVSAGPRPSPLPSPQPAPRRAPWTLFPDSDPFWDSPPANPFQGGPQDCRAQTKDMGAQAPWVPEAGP
Sequence of Serine/threonine-protein kinase SIK3 (Q9Y2K2 whole entry): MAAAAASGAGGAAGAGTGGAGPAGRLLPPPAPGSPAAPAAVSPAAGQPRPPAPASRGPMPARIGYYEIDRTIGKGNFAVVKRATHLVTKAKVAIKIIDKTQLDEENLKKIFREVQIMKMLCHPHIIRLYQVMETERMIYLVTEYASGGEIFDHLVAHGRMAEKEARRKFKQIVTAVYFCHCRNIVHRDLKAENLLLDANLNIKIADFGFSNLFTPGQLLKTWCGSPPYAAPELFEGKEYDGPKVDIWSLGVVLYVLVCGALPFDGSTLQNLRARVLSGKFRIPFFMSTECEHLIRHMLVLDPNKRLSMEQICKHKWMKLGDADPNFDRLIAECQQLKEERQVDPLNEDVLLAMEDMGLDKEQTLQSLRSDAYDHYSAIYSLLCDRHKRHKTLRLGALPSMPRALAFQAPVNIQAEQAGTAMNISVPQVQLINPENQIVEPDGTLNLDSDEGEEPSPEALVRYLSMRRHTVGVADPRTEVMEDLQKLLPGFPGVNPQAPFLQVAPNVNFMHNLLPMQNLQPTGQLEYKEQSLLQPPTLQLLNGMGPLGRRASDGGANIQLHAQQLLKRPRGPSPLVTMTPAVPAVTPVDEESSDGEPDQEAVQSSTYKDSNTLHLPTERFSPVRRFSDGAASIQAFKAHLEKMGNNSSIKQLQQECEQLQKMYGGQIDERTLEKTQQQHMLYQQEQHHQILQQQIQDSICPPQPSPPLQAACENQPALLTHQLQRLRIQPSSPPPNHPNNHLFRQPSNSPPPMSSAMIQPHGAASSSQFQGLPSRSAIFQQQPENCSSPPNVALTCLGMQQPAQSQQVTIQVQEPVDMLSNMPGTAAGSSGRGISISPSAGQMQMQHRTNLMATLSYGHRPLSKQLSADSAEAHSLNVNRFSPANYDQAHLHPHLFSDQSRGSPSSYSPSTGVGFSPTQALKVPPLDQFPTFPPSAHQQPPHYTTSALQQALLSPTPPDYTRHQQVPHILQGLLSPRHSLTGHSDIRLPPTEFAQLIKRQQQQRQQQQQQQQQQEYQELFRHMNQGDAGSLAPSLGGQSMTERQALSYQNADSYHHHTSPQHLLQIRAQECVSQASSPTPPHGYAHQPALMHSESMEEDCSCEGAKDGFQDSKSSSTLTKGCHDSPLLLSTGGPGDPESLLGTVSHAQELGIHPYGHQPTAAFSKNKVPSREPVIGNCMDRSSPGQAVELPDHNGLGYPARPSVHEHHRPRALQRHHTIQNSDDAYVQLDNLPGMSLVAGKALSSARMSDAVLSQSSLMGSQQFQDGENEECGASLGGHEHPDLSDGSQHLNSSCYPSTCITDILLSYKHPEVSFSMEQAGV
Sequence of Receptor-interacting serine/threonine-protein kinase 2 (O43353 whole entry, the tested form may be a part): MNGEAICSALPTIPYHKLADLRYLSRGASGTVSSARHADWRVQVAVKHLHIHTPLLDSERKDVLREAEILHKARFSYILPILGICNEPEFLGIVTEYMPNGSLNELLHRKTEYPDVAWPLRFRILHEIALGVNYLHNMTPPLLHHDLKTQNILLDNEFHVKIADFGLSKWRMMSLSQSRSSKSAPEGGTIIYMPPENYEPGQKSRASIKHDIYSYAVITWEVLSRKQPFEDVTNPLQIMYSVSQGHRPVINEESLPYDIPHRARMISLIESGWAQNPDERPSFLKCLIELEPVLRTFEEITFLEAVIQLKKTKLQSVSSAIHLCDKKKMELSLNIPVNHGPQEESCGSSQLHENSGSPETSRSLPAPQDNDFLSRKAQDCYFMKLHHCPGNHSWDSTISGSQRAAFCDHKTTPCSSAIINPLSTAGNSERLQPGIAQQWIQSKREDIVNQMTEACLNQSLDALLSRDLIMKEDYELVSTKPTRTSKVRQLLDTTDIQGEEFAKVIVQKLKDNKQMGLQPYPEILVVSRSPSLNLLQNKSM
Sequence of Tyrosine-protein kinase JAK1 (P23458 whole entry, the tested form may be a part): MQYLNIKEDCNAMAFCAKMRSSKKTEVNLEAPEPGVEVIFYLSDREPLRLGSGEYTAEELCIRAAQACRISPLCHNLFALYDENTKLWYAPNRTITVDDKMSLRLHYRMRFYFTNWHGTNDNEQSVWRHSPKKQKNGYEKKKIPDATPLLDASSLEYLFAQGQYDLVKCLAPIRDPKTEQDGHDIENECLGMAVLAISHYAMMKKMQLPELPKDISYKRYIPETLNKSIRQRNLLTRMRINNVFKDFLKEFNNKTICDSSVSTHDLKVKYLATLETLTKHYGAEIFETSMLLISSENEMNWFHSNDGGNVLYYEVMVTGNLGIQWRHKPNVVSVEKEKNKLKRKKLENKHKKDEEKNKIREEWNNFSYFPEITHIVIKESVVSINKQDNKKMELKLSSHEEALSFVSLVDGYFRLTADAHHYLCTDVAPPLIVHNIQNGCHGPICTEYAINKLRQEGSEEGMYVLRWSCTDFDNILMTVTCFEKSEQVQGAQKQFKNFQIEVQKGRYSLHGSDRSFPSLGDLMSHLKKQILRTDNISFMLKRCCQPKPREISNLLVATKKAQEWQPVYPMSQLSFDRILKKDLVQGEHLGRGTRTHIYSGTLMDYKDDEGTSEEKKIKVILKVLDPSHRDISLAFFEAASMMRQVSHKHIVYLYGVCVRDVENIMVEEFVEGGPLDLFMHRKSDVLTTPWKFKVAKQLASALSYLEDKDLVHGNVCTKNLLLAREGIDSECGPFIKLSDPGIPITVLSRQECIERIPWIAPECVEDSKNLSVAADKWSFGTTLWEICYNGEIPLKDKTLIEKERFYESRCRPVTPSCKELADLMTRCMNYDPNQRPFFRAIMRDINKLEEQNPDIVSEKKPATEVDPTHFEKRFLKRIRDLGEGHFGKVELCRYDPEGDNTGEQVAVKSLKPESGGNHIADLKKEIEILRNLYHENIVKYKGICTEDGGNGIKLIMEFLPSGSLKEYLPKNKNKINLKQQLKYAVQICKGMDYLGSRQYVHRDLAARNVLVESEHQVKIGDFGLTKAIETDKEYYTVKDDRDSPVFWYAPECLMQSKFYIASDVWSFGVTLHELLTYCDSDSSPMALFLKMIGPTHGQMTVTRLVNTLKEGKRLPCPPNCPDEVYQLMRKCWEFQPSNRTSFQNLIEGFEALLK

Regarding `COc1cc(Br)cc2[nH]cc(-c3cnc(-c4ccc(Br)[nH]4)o3)c12`, the IC50 (usually the concentration at which inhibition is half-maximal) was greater than 10 µM in data set [1]; greater than 10 µM in data set [2]; 3.3 µM in [3]; greater than 10 µM in data set [4]; greater than 10 µM in [5]; greater than 10 µM in data set [6]. Moreover, the IC50 in data set [7], in data set [8], in [9], in data set [10], in [11] and in data set [12] was greater than 10 µM throughout. The IC50 in data set [13] and in [14] was greater than 10 µM in each case.

For the compound `COc1cc2c(-c3cnc(-c4ccc[nH]4)o3)c[nH]c2cc1Br`, the IC50 in data set [1] stood at 0.6 µM; in data set [2], 1.8 µM; in data set [3] it was 0.5 µM; in [4], 11 µM; in [16], 0.77 µM; in data set [17], 0.34 µM. For the same compound, the IC50 in data set [6] was 22 µM; in data set [7], 8.5 µM; in data set [8] it was 1.2 µM; in data set [9] it was 7.1 µM; in data set [10] it was 9.8 µM; in data set [11], greater than 10 µM. The IC50 in data set [12] came to 4.4 µM; in data set [14], 9.9 µM. The Activity in data set [15] worked out at 57%; in data set [18], 6%; in data set [19] it was 75%; in [22], 7%. For the same compound, the LC50 at 72 h in [20] turned out to be 1.4 µM. The Kd – broadly, the free concentration of one partner at which half of the binding sites on the other are occupied at equilibrium, for simple one-to-one binding – in data set [21] stood at 1 µM. This compound returned a Fu in [23] of 0.3%.

For the compound `COc1cc(Br)cc2[nH]cc(-c3oc(-c4ccc[nH]4)nc3I)c12`, the IC50 in [1], in [2], in data set [3], in data set [4], in data set [5] and in [6] was greater than 10 µM in each case. Moreover, the IC50 in [7], in data set [8], in [9], in data set [10], in [11] and in data set [12] was greater than 10 µM throughout. Besides, the IC50 in data set [13] and in data set [14] was greater than 10 µM throughout.

In the case of `COc1cc(Br)cc2[nH]cc(-c3cnc(-c4ccc[nH]4)o3)c12`, the IC50 in data set [1] is 0.5 µM; in [2] it was 3.7 µM; in data set [3] it was 8.3 µM; in [4] it was 22 µM; in data set [5] it was greater than 10 µM; in data set [6], greater than 10 µM. Further, the IC50 was 3.9 µM in [7]; greater than 10 µM in [8]; greater than 10 µM in data set [9]; greater than 10 µM in [10]; greater than 10 µM in data set [11]; greater than 10 µM in [12]. The IC50 in data set [13] is 9.6 µM; in [14] it was greater than 10 µM. In addition, the values for the Activity result in data set [24] and in data set [22] were “Tde” and 29%, respectively.
